Test system: OSA patients
Test: oximeter tests / sleeping registration of OSA patients
Type: in vivo
Description: The medical treatment of OSA must be effective, inexpensive and without any side effects because it must be ongoing for the rest of the patient's life during the sleeping period regardless of the time of the day or night. By conducting regular oximeter tests in connection with the fitting of mechanical assistance, it has been concluded that anti-oxidants, such as tokoferole, has some effect. Hormones that govern the sleep initiation during for example, jet lag, such melatonin that is formed in a gland from the amino-acid tryptophane with serotonin as an intermediate step. […] The corresponding effect has been noticed when the intake has stopped and this effect is normally quicker.
DHEA prevents unwanted complete or total (100%) relaxation of the muscles in the throat region caused melatonin. […] ACTH may be used to increase the production of DHEA. Melatonin may be taken as tablets and lasts about 24 hours. Preferably, melatonin is taken at night. A suitable melatonin dose may be about 0.5-5 mg. DHEA may also be taken as tablets and lasts about 24 hours. Preferably, DHEA is taken in the morning. A suitable DHEA dose may be about 1-5 mg. Of course, melatonin and DHEA may be administered at other times of the day.

`C[C@]12CC[C@H](O)CC1=CC[C@@H]1[C@@H]2CC[C@]2(C)C(=O)CC[C@@H]12` [DHEA, dehydroepiandrosterone] was tested, and the “effect of parallel intake on the desired effect (reduced desaturations and SpO2 reduction)” value (parallel intake with melatonin, especially in combination with ACTH) was “synergistic increase of the desired effect”.
In the case of `COc1ccc2[nH]cc(CCNC(C)=O)c2c1` [melatonin, 5-metoxy-N-acetyletryptamine], the “effect on the sleeping registration of OSA patients (number of desaturations and level of SpO2 reduction below 90%)” value (low dose 0.5-5 mg depending on age, 10-80 years) is reported as “distinct effect” and the “time to optimal effect” value (regular intake) is reported as “after a couple of weeks”.
In the case of tokoferole, the “effect in regular oximeter tests” value (anti-oxidants, oximeter tests in connection with the fitting of mechanical assistance) is reported as “some effect”.
